Blank lines part the entries; values can stand above or below the compound they belong to.
Columns and labels:
[1] = molecular target: Fibroblast growth factor receptor 1 (Mus musculus, UniProt P16092); test: Inhibition of FGF induced FGFR1 autophosphorylation in mouse NIH 3T3 cells preincubated for 5 mins followed by FGF-stimulation for 5 mins in presence of [gamma-32P]ATP by SDS-PAGE based autoradiography; type: cell-based
[2] = molecular target: T1, Fibroblast growth factor receptor 1 (Homo sapiens, UniProt P11362); test: Inhibition of FGFR1 kinase domain (unknown origin)
T1 sequence (P11362 whole entry, the tested form may be a part): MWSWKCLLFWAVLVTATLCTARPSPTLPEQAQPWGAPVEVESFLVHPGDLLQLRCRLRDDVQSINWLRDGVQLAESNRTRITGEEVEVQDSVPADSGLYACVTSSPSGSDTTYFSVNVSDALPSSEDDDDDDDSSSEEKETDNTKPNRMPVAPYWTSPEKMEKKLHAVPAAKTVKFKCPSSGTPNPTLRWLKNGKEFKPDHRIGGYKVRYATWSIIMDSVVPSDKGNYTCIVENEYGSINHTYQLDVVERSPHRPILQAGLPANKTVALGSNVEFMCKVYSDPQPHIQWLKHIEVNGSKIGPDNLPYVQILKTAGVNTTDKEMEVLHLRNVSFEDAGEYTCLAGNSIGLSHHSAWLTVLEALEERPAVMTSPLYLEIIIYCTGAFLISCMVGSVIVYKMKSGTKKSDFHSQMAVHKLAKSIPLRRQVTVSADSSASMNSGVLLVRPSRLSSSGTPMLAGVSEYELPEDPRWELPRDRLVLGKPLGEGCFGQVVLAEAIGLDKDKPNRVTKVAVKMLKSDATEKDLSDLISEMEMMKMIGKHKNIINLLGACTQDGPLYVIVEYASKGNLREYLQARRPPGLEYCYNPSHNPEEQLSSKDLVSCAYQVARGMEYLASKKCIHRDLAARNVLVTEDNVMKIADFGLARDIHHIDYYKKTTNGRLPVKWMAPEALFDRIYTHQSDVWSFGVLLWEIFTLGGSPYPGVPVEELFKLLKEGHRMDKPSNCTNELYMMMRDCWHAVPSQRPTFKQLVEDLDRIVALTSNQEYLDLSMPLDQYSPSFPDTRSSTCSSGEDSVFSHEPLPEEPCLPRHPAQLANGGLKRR

[3] = system: SNU-16; test: cells; conditions: Homo sapiens, SNU-16, 72 h
[4] = molecular target: T2, Fibroblast growth factor receptor 2 (Homo sapiens, UniProt P21802); test: Inhibition of FGFR2 (unknown origin)
T2 sequence (P21802 whole entry): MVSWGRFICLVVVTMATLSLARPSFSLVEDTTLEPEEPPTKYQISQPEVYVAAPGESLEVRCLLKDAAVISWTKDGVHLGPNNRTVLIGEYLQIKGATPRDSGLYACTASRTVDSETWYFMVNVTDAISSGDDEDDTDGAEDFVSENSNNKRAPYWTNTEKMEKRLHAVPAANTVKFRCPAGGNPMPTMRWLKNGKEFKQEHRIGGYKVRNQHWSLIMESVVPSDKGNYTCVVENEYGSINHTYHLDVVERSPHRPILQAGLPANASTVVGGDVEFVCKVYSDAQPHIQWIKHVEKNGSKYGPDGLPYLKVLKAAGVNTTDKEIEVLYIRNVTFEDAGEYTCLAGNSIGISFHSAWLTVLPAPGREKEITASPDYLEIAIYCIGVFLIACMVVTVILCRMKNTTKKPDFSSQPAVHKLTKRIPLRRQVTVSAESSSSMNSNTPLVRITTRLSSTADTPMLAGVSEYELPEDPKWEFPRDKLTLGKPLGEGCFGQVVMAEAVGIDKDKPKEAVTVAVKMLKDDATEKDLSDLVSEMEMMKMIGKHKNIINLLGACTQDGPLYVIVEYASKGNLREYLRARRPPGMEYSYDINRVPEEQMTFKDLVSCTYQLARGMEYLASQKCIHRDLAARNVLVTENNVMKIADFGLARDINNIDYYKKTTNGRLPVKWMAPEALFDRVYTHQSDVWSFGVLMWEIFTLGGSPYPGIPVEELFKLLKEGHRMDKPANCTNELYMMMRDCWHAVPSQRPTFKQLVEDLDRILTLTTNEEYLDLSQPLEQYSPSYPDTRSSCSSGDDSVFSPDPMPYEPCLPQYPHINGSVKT

[5] = molecular target: Fibroblast growth factor receptor 2 (Homo sapiens, UniProt P21802, V564M); test: Inhibition of FGFR2 V564M mutant (unknown origin)
Sequence of Fibroblast growth factor receptor 2 (Homo sapiens, UniProt P21802, V564M) (P21802 22-821 V564M limits assumed): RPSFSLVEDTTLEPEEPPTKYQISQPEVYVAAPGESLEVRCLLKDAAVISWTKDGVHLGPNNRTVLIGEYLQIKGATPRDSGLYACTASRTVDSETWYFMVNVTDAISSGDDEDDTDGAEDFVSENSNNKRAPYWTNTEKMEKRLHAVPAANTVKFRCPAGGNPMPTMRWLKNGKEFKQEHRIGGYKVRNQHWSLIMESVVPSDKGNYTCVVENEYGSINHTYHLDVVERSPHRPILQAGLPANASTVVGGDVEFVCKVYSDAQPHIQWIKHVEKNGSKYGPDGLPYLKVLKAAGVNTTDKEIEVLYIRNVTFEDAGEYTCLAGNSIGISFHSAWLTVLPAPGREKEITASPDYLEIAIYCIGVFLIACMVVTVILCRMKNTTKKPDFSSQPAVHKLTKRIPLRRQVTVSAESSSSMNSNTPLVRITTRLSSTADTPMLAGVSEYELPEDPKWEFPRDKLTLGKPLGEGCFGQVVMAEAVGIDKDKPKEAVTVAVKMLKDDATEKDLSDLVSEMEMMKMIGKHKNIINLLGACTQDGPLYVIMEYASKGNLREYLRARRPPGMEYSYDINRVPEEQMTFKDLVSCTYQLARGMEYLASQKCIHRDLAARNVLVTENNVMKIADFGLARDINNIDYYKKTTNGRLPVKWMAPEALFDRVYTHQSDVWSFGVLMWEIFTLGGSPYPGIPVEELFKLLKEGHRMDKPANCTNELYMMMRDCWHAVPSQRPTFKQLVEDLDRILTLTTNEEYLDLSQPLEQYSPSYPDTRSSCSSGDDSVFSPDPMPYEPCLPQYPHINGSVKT

[6] = molecular target: T3, Fibroblast growth factor receptor 4 (Homo sapiens, UniProt P22455); test: Inhibition of FGFR4 (unknown origin)
T3 sequence (P22455 whole entry): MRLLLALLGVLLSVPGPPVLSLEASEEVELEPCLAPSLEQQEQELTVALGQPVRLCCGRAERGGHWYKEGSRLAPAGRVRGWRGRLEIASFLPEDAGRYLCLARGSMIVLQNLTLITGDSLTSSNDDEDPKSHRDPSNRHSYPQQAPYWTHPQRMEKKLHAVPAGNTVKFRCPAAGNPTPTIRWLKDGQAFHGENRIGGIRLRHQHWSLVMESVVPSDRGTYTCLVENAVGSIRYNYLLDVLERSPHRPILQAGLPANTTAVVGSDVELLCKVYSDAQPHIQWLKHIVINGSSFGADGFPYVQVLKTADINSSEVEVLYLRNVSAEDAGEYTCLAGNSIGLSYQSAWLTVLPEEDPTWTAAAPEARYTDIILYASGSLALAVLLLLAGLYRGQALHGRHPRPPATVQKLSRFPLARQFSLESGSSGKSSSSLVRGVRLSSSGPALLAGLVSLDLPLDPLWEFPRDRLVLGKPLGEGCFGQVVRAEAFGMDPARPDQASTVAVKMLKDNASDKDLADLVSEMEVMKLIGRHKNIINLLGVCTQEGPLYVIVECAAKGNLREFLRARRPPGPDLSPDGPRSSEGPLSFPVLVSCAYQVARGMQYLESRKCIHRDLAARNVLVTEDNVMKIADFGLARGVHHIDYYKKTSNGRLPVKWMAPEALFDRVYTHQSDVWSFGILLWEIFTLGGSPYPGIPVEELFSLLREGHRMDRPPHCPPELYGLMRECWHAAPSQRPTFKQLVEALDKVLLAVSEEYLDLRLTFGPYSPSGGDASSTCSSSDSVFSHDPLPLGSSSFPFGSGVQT

[7] = molecular target: Fibroblast growth factor receptor 3 (Homo sapiens, UniProt P22607); test: Inhibition of FGFR3 (unknown origin)
Sequence of Fibroblast growth factor receptor 3 (P22607 whole entry): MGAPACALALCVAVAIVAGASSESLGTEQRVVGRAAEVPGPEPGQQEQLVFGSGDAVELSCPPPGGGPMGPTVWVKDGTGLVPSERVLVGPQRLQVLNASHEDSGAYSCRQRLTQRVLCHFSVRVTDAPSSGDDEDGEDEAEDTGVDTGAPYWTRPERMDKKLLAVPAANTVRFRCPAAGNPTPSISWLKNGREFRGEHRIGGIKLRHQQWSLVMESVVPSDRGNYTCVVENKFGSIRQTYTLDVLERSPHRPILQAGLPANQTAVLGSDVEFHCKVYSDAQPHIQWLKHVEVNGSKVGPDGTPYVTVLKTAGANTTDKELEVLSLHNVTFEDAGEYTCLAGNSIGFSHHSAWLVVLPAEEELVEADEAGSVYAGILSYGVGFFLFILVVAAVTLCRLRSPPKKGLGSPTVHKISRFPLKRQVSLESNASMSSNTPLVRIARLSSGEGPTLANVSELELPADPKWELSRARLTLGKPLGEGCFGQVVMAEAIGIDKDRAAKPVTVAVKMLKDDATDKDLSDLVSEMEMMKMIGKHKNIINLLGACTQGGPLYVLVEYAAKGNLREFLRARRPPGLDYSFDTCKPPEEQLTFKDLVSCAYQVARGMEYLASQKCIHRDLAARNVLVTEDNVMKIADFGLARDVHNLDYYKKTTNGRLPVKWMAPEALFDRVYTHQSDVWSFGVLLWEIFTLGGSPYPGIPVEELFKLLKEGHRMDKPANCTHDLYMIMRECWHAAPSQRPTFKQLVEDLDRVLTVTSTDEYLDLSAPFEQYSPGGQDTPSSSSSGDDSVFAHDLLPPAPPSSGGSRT

[8] = molecular target: T1, Fibroblast growth factor receptor 1; test: Inhibition of FGFR1 (unknown origin)
[9] = molecular target: T1, Fibroblast growth factor receptor 1; test: Inhibition of recombinant His6-tagged FGFR1 (unknown origin) expressed in Escherichia coli BL21(DE3)-RILP using peptidic substrate by ELISA
[10] = molecular target: T2, Fibroblast growth factor receptor 2; test: Inhibition of recombinant His6-tagged FGFR2 (unknown origin) expressed in Escherichia coli BL21(DE3)-RILP using peptidic substrate by ELISA
[11] = molecular target: Epidermal growth factor receptor (Homo sapiens, UniProt P00533, L858R); test: Inhibition of EGFR L858R mutant (unknown origin)
[12] = molecular target: T3, Fibroblast growth factor receptor 4; test: Inhibition of human N-terminal GST-tagged FGFR4 cytoplasmic domain (460 to 802 end residues) expressed in baculovirus expression system using CSKtide as substrate after 90 mins

Sequence of Fibroblast growth factor receptor 1 (Mus musculus, UniProt P16092) (P16092 whole entry, the tested form may be a part): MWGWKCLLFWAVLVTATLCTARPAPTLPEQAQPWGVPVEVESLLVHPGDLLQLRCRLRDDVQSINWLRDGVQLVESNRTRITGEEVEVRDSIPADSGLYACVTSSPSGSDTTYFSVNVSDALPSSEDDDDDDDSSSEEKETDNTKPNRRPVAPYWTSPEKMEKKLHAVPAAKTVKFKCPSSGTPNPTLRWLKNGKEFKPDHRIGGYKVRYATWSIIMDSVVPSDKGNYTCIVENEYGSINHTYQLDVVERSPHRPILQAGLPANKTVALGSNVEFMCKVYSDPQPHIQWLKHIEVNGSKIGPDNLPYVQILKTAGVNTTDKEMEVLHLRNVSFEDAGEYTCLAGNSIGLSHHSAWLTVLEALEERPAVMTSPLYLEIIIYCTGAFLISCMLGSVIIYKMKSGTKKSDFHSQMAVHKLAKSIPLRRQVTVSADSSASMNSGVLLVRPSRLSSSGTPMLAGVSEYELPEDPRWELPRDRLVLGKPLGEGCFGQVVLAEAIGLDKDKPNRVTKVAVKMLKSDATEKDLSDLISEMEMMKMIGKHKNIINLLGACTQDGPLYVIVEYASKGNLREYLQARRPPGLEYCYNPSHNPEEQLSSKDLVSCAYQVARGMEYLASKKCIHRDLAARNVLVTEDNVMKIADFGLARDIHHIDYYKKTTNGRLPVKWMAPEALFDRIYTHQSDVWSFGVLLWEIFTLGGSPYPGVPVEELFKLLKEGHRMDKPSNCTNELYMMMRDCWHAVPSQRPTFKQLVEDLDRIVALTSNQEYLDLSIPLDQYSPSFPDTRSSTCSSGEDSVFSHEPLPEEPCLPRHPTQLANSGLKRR

IC50 [1]: 20000 to 40000 nM
IC50 [2]: 10000 to 20000 nM
Compound: O=CN1CCN(c2ccc(/C=C3\C(=O)Nc4ccccc43)cc2)CC1

IC50 [3]: 40.5 nM
Compound: CCN1CCN(c2ccc(C(=O)Nc3n[nH]c4cc(-c5cccc(OC)c5F)ccc34)cc2)CC1

IC50 [4]: 4 nM
IC50 [5]: 58 nM
IC50 [6]: 32 nM
IC50 [7]: 93 nM
EC50 [8]: 1 nM
Compound: C=CC(=O)Nc1ccc(CN2C(=O)N(c3cc(OC)cc(OC)c3)Cc3cnc(Nc4ccc(N5CCN(C)CC5)cc4)nc32)cc1

IC50 [1]: 10000 to 20000 nM
IC50 [2]: 10000 to 20000 nM
Compound: Cc1c[nH]c(/C=C2\C(=O)Nc3ccccc32)c1CCC(=O)O

IC50 [3]: 642 nM
Compound: CCN1CCN(c2ccc(C(=O)Nc3n[nH]c4cc(-c5cccc(OC)c5)ccc34)cc2)CC1

IC50 [9]: 840 nM
IC50 [10]: 1230 nM
Compound: Nc1ncc2c(n1)-c1ccccc1[C@H](c1ccccc1)C2

IC50 [4]: < 1 nM
IC50 [11]: 16.8 nM
IC50 [5]: 64 nM
IC50 [6]: 22 nM
IC50 [7]: 41 nM
EC50 [8]: 1 nM
Compound: C=CC(=O)Nc1ccc(CN(C(=O)Nc2c(Cl)c(OC)cc(OC)c2Cl)c2cc(Nc3ccc(N4CCN(C)CC4)cc3)ncn2)cc1

Compound: C=CC(N)=O [ACRYLAMIDE]
IC50 [12]: 938 nM
